Entries after “also recorded” stand apart in the source; their conditions may differ.
What was measured:
[1] = test system: voltage-activated Na+ currents of sdDRGns; assay: whole-cell voltage-clamp of voltage activated Na+ currents in sdDRGns; assay type: cell-based, rat; settings: 0.1 μg/ml, 0.29 μM (FIG. 1.b)
Procedure: FIG. 1 illustrates the effect of nitenin (0.1 μg/ml) on voltage activated currents recorded from small diameter Dorsal Root Ganglia neurons (sdDRGns) • a) In sdDRGns, voltage-activated outward potassium (K^+) currents were evoked by a depolarizing step to +20 mV (holding potential of −70 mV) preceded by a hyperpolarizing pre-pulse to −120 mV. […] Typical voltage activated K^+ current traces recorded before and in the presence of nitenin (0.1 μg/ml); lower trace corresponding to the current subtraction, fit with a single-exponential function (time constant τ˜150 ms). ii.
For the electrophysiological recordings of the ex vivo material, voltage-clamp recordings were performed on neurons isolated from rat DRGs (and TGs). Recordings were performed from the soma that often contained the proximal fraction of axon, 1 hour after the end of the cell isolation process (includes enzymatic and mechanical treatment).

hKv1.1 = target: T1, hKv1.1 (Homo sapiens, UniProt Q09470); assay: voltage-clamp of K+ currents in CHO-K1 cells expressing hKv1.1; assay type: cell-based
T1 construct: expressed in transfected cells; host or cells: CHO-K1
Text: (§1) As measure of Ifast, peak current was used, whereas, as a measure of Islow, the current value was obtained at the end of the command pulse (see FIG. 1). Values are expressed as mean±S.E.M. For Islow, a dual phase relationship can be observed. […] Kv1.3 channel is the most sensitive channel (around 6-fold more sensitive in comparison to the “next most sensitive one”, the Kv1.2) Kv1.2, Kv1.1 and Kv1.6 show similar, intermediate sensitivities to nitenin. In opposition, Kv1.4 is the less sensitive (˜31 times less sensitive).
(§2) Additionally, drug sensitivity to different voltage-activated channels was assessed by studying the drug effect on currents recorded from chinese hamster ovary (CHO) cells stably transfected with different human Kv channel subunits (Kv1.1, Kv1.2, Kv1.3, Kv1.4 and Kv1.6).
(§3) The higher sensitivity of nitenin to Islow (rather than Ifast) and the nature of the nitenin sensitive current (see nitenin sensitive current in FIG. 1.b) urged to understand which K^+ channel(s) do underline Islow. By considering which Kv channel subunits are known to be expressed in DRG, and the biophysical nature of the nitenin-sensitive current, nitenin was tested on whole-cell currents recorded from CHO cells expressing hKv1.1, hKv1.2, hKv1.3, hKv1.4 and hKv1.6. […] Current inhibition was measured at the end of the 1000 ms pulse.

[2] = test system: isolated rat atria and isolated rat ventricles; assay: ex vivo rat heart preparations; settings: up to 10 μM
[3] = test system: CCI rats (chronic constriction of the sciatic nerve of Wistar rats); assay: neuropathic pain rat model CCI, von Frey filaments; assay type: in vivo
Text: FIG. 4 illustrates behavioral readouts as measures of pain during treatment with nitenin on a Neuropatic pain rat model CCI (Chronic constriction injury). Typical experiment using a group of Wistar rats subjected to four unilateral sciatic nerve constrictions. Values refer to the mechanical sensitivity to stimulation using calibrated von Frey Filaments, and consequently reflecting hyperalgesia when hypersensitive (black filled markers—ipsilateral, operated leg; Open markers—contralateral, uninjured leg). Dotted line refers to the average value of the ipsilateral paw prior to surgery. a) Induction of the model showing that 3 days after operation, the mechanical sensitivity of the ipsilateral limb increases markedly, whereas the one associated with the contralateral leg remained unchanged, similar to baseline values. This tendency is maintained during 26 days after surgery, day that treatment with nitenin was performed (circle with dotted line). b) Effect of intravenous injection of nitenin (estimated plasma concentration of 1 μg/ml) on the mechanical sensitivity of the ipsilateral leg. For clarity, the data of the contralateral limb is not shown but it remains unaltered. […]
For efficacy studies, nociception was assessed in all animals from all pain models by regular behavioural monitoring, by quantifying the sensitivity to mechanical stimuli with Von Frey filaments, and consequently reflecting hyperalgesia when hypersensitive. […] Intraperitoneal administration was tested in CFA rats (23 days after CFA injection), with 10 times the nitenin quantity administered by I.V. injections. […]

hKv1.3 = target: T2, hKv1.3 (Homo sapiens, UniProt P22001); assay: voltage-clamp of K+ currents in CHO-K1 cells expressing hKv1.3; assay type: cell-based; settings: inhibition measured at end of 1000 ms pulse, read-out: IC50 of K+ current inhibition, hKv1.3
T2 construct: expressed in transfected cells; host or cells: CHO-K1
Text: as §1, §2, §3

T1 sequence (Q09470 whole entry): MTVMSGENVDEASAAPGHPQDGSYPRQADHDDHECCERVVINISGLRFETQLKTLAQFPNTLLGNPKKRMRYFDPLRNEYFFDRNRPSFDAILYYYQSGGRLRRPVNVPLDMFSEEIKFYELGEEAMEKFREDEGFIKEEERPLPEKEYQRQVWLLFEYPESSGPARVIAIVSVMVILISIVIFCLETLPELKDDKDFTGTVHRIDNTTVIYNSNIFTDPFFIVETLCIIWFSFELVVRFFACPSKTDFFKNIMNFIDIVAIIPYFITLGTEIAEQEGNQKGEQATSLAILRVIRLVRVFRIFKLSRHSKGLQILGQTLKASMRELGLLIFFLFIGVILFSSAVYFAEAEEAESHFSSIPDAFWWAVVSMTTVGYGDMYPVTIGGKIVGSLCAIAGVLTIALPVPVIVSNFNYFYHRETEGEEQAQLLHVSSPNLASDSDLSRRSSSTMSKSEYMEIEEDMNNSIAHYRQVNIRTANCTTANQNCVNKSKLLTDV
T2 sequence (P22001 whole entry): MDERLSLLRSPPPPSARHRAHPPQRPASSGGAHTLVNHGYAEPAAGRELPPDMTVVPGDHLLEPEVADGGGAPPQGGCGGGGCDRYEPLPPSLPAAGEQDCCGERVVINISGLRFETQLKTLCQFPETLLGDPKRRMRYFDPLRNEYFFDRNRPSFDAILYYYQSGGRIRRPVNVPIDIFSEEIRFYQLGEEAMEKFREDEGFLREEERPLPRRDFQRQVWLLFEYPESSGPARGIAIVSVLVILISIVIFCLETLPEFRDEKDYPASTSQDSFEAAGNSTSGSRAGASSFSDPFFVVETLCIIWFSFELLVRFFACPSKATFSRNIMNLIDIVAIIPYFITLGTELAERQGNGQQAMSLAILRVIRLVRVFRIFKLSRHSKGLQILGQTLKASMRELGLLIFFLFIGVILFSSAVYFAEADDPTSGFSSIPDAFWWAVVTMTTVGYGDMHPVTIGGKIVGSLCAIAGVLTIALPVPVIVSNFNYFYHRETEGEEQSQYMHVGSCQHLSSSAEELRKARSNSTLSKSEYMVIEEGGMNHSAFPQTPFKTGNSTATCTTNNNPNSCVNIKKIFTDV

`C/C(=C\C1C/C(=C/CCc2ccoc2)C(=O)O1)CCCc1ccoc1` (stereo not shown) [nitenin] was tested, and the “effect on voltage activated Na+ currents” value [1] was “absence of effect”, the “effect on voltage activated Na+ currents” value ([1]; listed as Nitenin) was “not being able to induce relevant changes” and the “lower sensitivity of hKv1.1 relative to Kv1.3” value (hKv1.1) was ~6 ×. For the same molecule, the sinus heart rate ([2]; ex vivo) was “does not change”, the atrial inotropy ([2]; isolated rat atria) was “does not change” and the “right ventricular (RV) inotropy” value ([2]; isolated rat ventricles) was “does not change”. For the same molecule, the “behavioural scores of the contralateral (uninjured) paw” value ([3]; I.V. 1 μg/mL of blood) was “no changes”, the “mechanical sensitivity of ipsilateral paw (von Frey)” value ([3]; I.V. 1 μg/mL of blood ~0.06 mg/Kg, acute (3 days) and chronic (22 to 31 days)) was “reaching values not different to those obtained during baseline; also recorded: noticeable decrease of sensitivity to mechanical stimuli” and the “time of maximum effect after injection” value ([3]; intravenous, estimated plasma concentration 1 μg/ml, 26 days after surgery) was ~1 h. The IC50 (hKv1.3) was 190 nM.

Source: patent US12336977B2, “Nitenin analogue compounds and their use in the treatment of chronic and acute pain” (SEA4US-BIOTECNOLOGIA E RECURSOS MARINHOS, LDA., priority 2019, dated 2025)
